Measured values from patent US20170008888A1 (KYORIN PHARMACEUTICAL CO., LTD., priority 2014, published 2017).

Columns and labels:
[1] = tested on: DNFB-induced ear inflammation mouse model; assay: DNFB-induced ear inflammation mouse model: cytokine concentrations in ear tissue; assay type: in vivo, mouse (Balb/c)
Description: In vivo T-cell mediated immune response was examined in a mouse model of CHS using the hapten dinitrofluorobenzene (DNFB) as the induction agent. […] On Days 0 and 1 (sensitization), 20 μL of 0.5% v/v DNFB in acetone:olive oil (4:1) was applied to each hindpaw of 8 week old male mice (Balb/c, Charles River Laboratories; 10 mice per group unless otherwise noted). On Day 5 (elicitation) 10 μL of 0.2% v/v DNFB in acetone: olive oil (4:1) was applied to the dorsal surface of the right ear of each animal; 10 μL of acetone: olive oil (4:1) was applied to the dorsal surface of the left ear as control. Treatments were administered by group as indicated in the table below; on days when DNFB was used, the QD and the morning dose of BID as appropriate were administered 30 minutes-1 hr. prior to DNFB application. […] Approximately 24 hours after elicitation (Day 6), a 7 mm tissue punch from the central portion of both ears was collected and wet weights measured. The primary functional assessment was the difference in wet weights of the right (DNFB) vs. left (vehicle) ears compared to the vehicle treatment (Vehicle1-S) as an indicator of inflammation (Table 17). Ear tissue punches were flash frozen, stored at −70° C. and analyzed for cytokines (see below).
Cytokine concentrations after DNFB induction and treatment were analyzed in the weighed and flash frozen tissues of the right (DNFB) and left (control) 7 mm ear punches. The ear tissues were stored at −70° C. until prepared for analysis as follows. Left or right ear tissues from the same treatment group were pooled and crushed with mortar and pestle under liquid nitrogen. Tissue representing 7-8 ear punches by weight was homogenized in Buffer A (50 mM HEPES pH 7.4, 100 mM NaCl) containing 1 tablet EDTA-free Protease Inhibitor (Thermo Fisher Scientific, Rockford, Ill.) per 10 mL, 1× Phosphatase Inhibitor Cocktail II (AG Scientific, San Diego, Calif.), and 1 mM PMSF (Sigma, St. Louis, Mo.). Homogenization was performed in Lysing Matrix D tubes (MP Biomedicals, Solon, Ohio), using the FastPrep-24 instrument (MP Biomedicals) at a speed setting of 6 for 4 cycles of 30 seconds, with cooling on ice in between cycles. The tubes were then centrifuged at 1,000×g for 10 min at 4° C. Supernatant was collected and briefly sonicated using the Microson probe sonicator at setting 3 (Misonix, Farmingdale, N.Y.) before centrifuging again at 10,000×g for 10 min at 4° C. The supernatant was ultracentrifuged at 100,000×g for 1 h at 4° C. in the Optima Max-E (Beckman Coulter, Indianapolis, Ind.) to separate soluble and membrane protein fractions. The soluble (supernatant) fraction was collected and protein concentrations determined using the Dc protein kit (Bio-Rad, Hercules, Calif.). Soluble ear proteins were analyzed in triplicate for cytokine response at a final protein concentration of 4 mg/ml using the Bio-Plex Pro Mouse Cytokine 23-Plex panel (Bio-Rad) as per manufacturer's protocols. Magnetic beads were read on the Bio-Plex MAGPIX multiplex reader instrument using the accompanying xPONENT 4.2 acquisition software (Bio-Rad Laboratories, Hercules, Calif.). Data were analyzed via the Bio-Plex Manager software v6.1 (Bio-Rad Laboratories). Response was calculated as a percentage of the cytokine concentrations measured in the right (DNFB) ears of vehicle 1 dosed (S regimen, i.e. dosed Day 0-5) mice (Table 18).

BRD3 = target: T1, BRD3 (Homo sapiens, UniProt Q15059); assay: Bromodomain binding assay: BRD3
T1 construct: read out by qPCR of the phage DNA
T1 sequence (Q15059 whole entry): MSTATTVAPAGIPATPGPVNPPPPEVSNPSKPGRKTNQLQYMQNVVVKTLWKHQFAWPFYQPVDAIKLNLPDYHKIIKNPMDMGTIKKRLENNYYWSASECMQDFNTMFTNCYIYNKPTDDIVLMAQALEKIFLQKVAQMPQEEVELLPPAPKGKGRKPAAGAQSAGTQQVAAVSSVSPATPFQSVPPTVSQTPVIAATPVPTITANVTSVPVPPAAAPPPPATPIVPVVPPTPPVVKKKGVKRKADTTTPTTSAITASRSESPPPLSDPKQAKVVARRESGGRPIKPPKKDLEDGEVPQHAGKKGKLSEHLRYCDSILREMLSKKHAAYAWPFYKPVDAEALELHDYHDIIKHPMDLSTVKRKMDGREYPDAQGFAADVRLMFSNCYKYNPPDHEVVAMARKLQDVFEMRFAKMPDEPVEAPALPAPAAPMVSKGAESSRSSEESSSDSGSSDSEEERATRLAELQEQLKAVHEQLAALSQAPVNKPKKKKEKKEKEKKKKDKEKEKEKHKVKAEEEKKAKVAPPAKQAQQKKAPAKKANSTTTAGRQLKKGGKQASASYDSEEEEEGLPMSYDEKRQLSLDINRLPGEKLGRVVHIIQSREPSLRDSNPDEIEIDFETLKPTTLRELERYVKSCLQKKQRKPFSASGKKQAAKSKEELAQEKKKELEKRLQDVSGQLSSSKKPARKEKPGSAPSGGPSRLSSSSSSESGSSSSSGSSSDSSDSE
Description: (§1) T7 phage strains displaying bromodomains were grown in parallel in 24-well blocks in an E. coli host derived from the BL21 strain. E. coli were grown to log-phase and infected with T7 phage from a frozen stock (multiplicity of infection=0.4) and incubated with shaking at 32° C. until lysis (90-150 minutes). The lysates were centrifuged (5,000×g) and filtered (0.2 μm) to remove cell debris. […] The liganded beads were blocked with excess biotin and washed with blocking buffer (SeaBlock (Pierce), 1% BSA, 0.05 Tween 20, 1 mM DTT) to remove unbound ligand and to reduce non-specific phage binding. […] Test compounds (T62 and 46) were prepared as 1000× stocks in 100% DMSO and subsequently diluted 1:10 in monoethylene glycol (MEG) to create stocks at 100× the screening concentration (resulting stock solution is 10% DMSO/90% MEG). The compounds were then diluted directly into the assays such that the final concentration of DMSO and MEG were 0.1% and 0.9%, respectively. All reactions were performed in polystyrene 96-well plates in a final volume of 0.135 ml. […] The bromodomain concentration in the eluates was measured by qPCR. Compounds were assayed for binding activity against a panel of 40 bromodomain-containing proteins.

BRD4 = target: T2, BRD4 (Homo sapiens, UniProt O60885); assay: Bromodomain binding assay: BRD4
T2 construct: read out by qPCR of the phage DNA
Description: as §1

BAZ2A = target: T3, BAZ2A (Homo sapiens, UniProt Q9UIF9); assay: Bromodomain binding assay: BAZ2A
T3 construct: T7 phage strains displaying bromodomains were grown in parallel; made in house; host or cells: E. coli host derived from BL21, infected with T7 phage
T3 sequence (Q9UIF9 1793-1897 limits assumed, species assumed): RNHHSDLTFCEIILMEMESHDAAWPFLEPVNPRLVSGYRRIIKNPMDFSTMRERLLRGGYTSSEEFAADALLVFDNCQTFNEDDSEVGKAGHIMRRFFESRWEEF
Description: as §1

Compound: CCOc1cc(C(=O)N2CCC(N3CCCC3)CC2)ccc1Nc1cc2c(cn1)N(C)C(=O)c1ccccc1N2C [Compound 46, 3-(2-Ethoxy-4-(4-(pyrrolidin-1-yl)piperidine-1-carbonyl)phenylamino)-5,11-dimethyl-5H-benzo[e]pyrido[3,4-b][1,4]diazepin-10(11H)-one]
- G-CSF: Mean % Cytokine Concentration in DNFB Treated Right Ears versus Vehicle 1-Dosed (S) Mice ([1]; 25 mg/kg, regimen E): 58%
- GM-CSF: Mean % Cytokine Concentration in DNFB Treated Right Ears versus Vehicle 1-Dosed (S) Mice ([1]; 25 mg/kg, regimen E): 29%
- IFN-γ: Mean % Cytokine Concentration in DNFB Treated Right Ears versus Vehicle 1-Dosed (S) Mice ([1]; 25 mg/kg, regimen E): 51%
- IL-1α: Mean % Cytokine Concentration in DNFB Treated Right Ears versus Vehicle 1-Dosed (S) Mice ([1]; 25 mg/kg, regimen E): 128%
- IL-1β: Mean % Cytokine Concentration in DNFB Treated Right Ears versus Vehicle 1-Dosed (S) Mice ([1]; 25 mg/kg, regimen E): 57%
- IL-3: Mean % Cytokine Concentration in DNFB Treated Right Ears versus Vehicle 1-Dosed (S) Mice ([1]; 25 mg/kg, regimen E): 75%
- IL-5: Mean % Cytokine Concentration in DNFB Treated Right Ears versus Vehicle 1-Dosed (S) Mice ([1]; 25 mg/kg, regimen E): 63%
- IL-6: Mean % Cytokine Concentration in DNFB Treated Right Ears versus Vehicle 1-Dosed (S) Mice ([1]; 25 mg/kg, regimen E): 53%
- IL-12 (p40): Mean % Cytokine Concentration in DNFB Treated Right Ears versus Vehicle 1-Dosed (S) Mice ([1]; 25 mg/kg, regimen E): 81%
- IL-13: Mean % Cytokine Concentration in DNFB Treated Right Ears versus Vehicle 1-Dosed (S) Mice ([1]; 25 mg/kg, regimen E): 79%
- IL-17A: Mean % Cytokine Concentration in DNFB Treated Right Ears versus Vehicle 1-Dosed (S) Mice ([1]; 25 mg/kg, regimen E): 53%
- KC: Mean % Cytokine Concentration in DNFB Treated Right Ears versus Vehicle 1-Dosed (S) Mice ([1]; 25 mg/kg, regimen E): 30%
- MCP-1: Mean % Cytokine Concentration in DNFB Treated Right Ears versus Vehicle 1-Dosed (S) Mice ([1]; 25 mg/kg, regimen E): 37%
- MIP-1α: Mean % Cytokine Concentration in DNFB Treated Right Ears versus Vehicle 1-Dosed (S) Mice ([1]; 25 mg/kg, regimen E): 62%
- MIP-1β: Mean % Cytokine Concentration in DNFB Treated Right Ears versus Vehicle 1-Dosed (S) Mice ([1]; 25 mg/kg, regimen E): 44%
- RANTES: Mean % Cytokine Concentration in DNFB Treated Right Ears versus Vehicle 1-Dosed (S) Mice ([1]; 25 mg/kg, regimen E): 55%
- TNF-α: Mean % Cytokine Concentration in DNFB Treated Right Ears versus Vehicle 1-Dosed (S) Mice ([1]; 25 mg/kg, regimen E): 67%
- G-CSF: Mean % Cytokine Concentration in DNFB Treated Right Ears versus Vehicle 1-Dosed (S) Mice ([1]; 60 mg/kg, regimen E): 36%
- GM-CSF: Mean % Cytokine Concentration in DNFB Treated Right Ears versus Vehicle 1-Dosed (S) Mice ([1]; 60 mg/kg, regimen E): 0%
- IFN-γ: Mean % Cytokine Concentration in DNFB Treated Right Ears versus Vehicle 1-Dosed (S) Mice ([1]; 60 mg/kg, regimen E): 25%
- IL-1α: Mean % Cytokine Concentration in DNFB Treated Right Ears versus Vehicle 1-Dosed (S) Mice ([1]; 60 mg/kg, regimen E): 120%
- IL-1β: Mean % Cytokine Concentration in DNFB Treated Right Ears versus Vehicle 1-Dosed (S) Mice ([1]; 60 mg/kg, regimen E): 32%
- IL-3: Mean % Cytokine Concentration in DNFB Treated Right Ears versus Vehicle 1-Dosed (S) Mice ([1]; 60 mg/kg, regimen E): 53%
- IL-5: Mean % Cytokine Concentration in DNFB Treated Right Ears versus Vehicle 1-Dosed (S) Mice ([1]; 60 mg/kg, regimen E): 23%
- IL-6: Mean % Cytokine Concentration in DNFB Treated Right Ears versus Vehicle 1-Dosed (S) Mice ([1]; 60 mg/kg, regimen E): 31%
- IL-12 (p40): Mean % Cytokine Concentration in DNFB Treated Right Ears versus Vehicle 1-Dosed (S) Mice ([1]; 60 mg/kg, regimen E): 64%
- IL-13: Mean % Cytokine Concentration in DNFB Treated Right Ears versus Vehicle 1-Dosed (S) Mice ([1]; 60 mg/kg, regimen E): 61%
- IL-17A: Mean % Cytokine Concentration in DNFB Treated Right Ears versus Vehicle 1-Dosed (S) Mice ([1]; 60 mg/kg, regimen E): 42%
- KC: Mean % Cytokine Concentration in DNFB Treated Right Ears versus Vehicle 1-Dosed (S) Mice ([1]; 60 mg/kg, regimen E): 21%
- MCP-1: Mean % Cytokine Concentration in DNFB Treated Right Ears versus Vehicle 1-Dosed (S) Mice ([1]; 60 mg/kg, regimen E): 31%
- MIP-1α: Mean % Cytokine Concentration in DNFB Treated Right Ears versus Vehicle 1-Dosed (S) Mice ([1]; 60 mg/kg, regimen E): 42%
- MIP-1β: Mean % Cytokine Concentration in DNFB Treated Right Ears versus Vehicle 1-Dosed (S) Mice ([1]; 60 mg/kg, regimen E): 31%
- RANTES: Mean % Cytokine Concentration in DNFB Treated Right Ears versus Vehicle 1-Dosed (S) Mice ([1]; 60 mg/kg, regimen E): 37%
- TNF-α: Mean % Cytokine Concentration in DNFB Treated Right Ears versus Vehicle 1-Dosed (S) Mice ([1]; 60 mg/kg, regimen E): 48%
- G-CSF: Mean % Cytokine Concentration in DNFB Treated Right Ears versus Vehicle 1-Dosed (S) Mice ([1]; 60 mg/kg, regimen S): 27%
- GM-CSF: Mean % Cytokine Concentration in DNFB Treated Right Ears versus Vehicle 1-Dosed (S) Mice ([1]; 60 mg/kg, regimen S): 0%
- IFN-γ: Mean % Cytokine Concentration in DNFB Treated Right Ears versus Vehicle 1-Dosed (S) Mice ([1]; 60 mg/kg, regimen S): 22%
- IL-1α: Mean % Cytokine Concentration in DNFB Treated Right Ears versus Vehicle 1-Dosed (S) Mice ([1]; 60 mg/kg, regimen S): 88%
- IL-1β: Mean % Cytokine Concentration in DNFB Treated Right Ears versus Vehicle 1-Dosed (S) Mice ([1]; 60 mg/kg, regimen S): 23%
- IL-3: Mean % Cytokine Concentration in DNFB Treated Right Ears versus Vehicle 1-Dosed (S) Mice ([1]; 60 mg/kg, regimen S): 45%
- IL-5: Mean % Cytokine Concentration in DNFB Treated Right Ears versus Vehicle 1-Dosed (S) Mice ([1]; 60 mg/kg, regimen S): 5%
- IL-6: Mean % Cytokine Concentration in DNFB Treated Right Ears versus Vehicle 1-Dosed (S) Mice ([1]; 60 mg/kg, regimen S): 20%
- IL-12 (p40): Mean % Cytokine Concentration in DNFB Treated Right Ears versus Vehicle 1-Dosed (S) Mice ([1]; 60 mg/kg, regimen S): 49%
- IL-13: Mean % Cytokine Concentration in DNFB Treated Right Ears versus Vehicle 1-Dosed (S) Mice ([1]; 60 mg/kg, regimen S): 47%
- IL-17A: Mean % Cytokine Concentration in DNFB Treated Right Ears versus Vehicle 1-Dosed (S) Mice ([1]; 60 mg/kg, regimen S): 38%
- KC: Mean % Cytokine Concentration in DNFB Treated Right Ears versus Vehicle 1-Dosed (S) Mice ([1]; 60 mg/kg, regimen S): 19%
- MCP-1: Mean % Cytokine Concentration in DNFB Treated Right Ears versus Vehicle 1-Dosed (S) Mice ([1]; 60 mg/kg, regimen S): 27%
- MIP-1α: Mean % Cytokine Concentration in DNFB Treated Right Ears versus Vehicle 1-Dosed (S) Mice ([1]; 60 mg/kg, regimen S): 29%
- MIP-1β: Mean % Cytokine Concentration in DNFB Treated Right Ears versus Vehicle 1-Dosed (S) Mice ([1]; 60 mg/kg, regimen S): 24%
- RANTES: Mean % Cytokine Concentration in DNFB Treated Right Ears versus Vehicle 1-Dosed (S) Mice ([1]; 60 mg/kg, regimen S): 27%
- TNF-α: Mean % Cytokine Concentration in DNFB Treated Right Ears versus Vehicle 1-Dosed (S) Mice ([1]; 60 mg/kg, regimen S): 39%
- Kd (BRD3): 33 nM
- Kd (BRD4): 41 nM
- Kd (BAZ2A): > 20000 nM
